Laboratory results published in patent publication US20260038304A1, “METHOD AND SYSTEM FOR DETERMINING EFFICACY OF TREATMENT BY A PRE[…]” (priority 2023, published 2026).
Where a name gives a salt, the structure may show the parent alone.

Key:
Format in all cases: in vivo
larval zebrafish [1] = assay: Ketanserin bath application with or without psilocybin, independent component analysis of swim patterns; conditions: Ketanserin 11.25 μM for 5 hours
Experimental: The right panel of FIG. 4M depicts latent feature (e.g., independent component) analysis of swim patterns after the sham treatment, Ketanserin exposure and psilocybin pretreatment before Ketanserin exposure;
Ketanserin has acute anxiogenic effects in adult zebrafish and rodents.
For Ketanserin experiments (FIG. 4M), the inventors performed a bath application of Ketanserin (11.25 μM) for 5 hours before behavioral tests. Psilocybin (2.5 μM) was added to the solution 1 hour after the start of Ketanserin treatment for a total duration of 4 hours before behavioral tests. Ketanserin (Sigma, S006) was prepared as a 0.5 mg/mL stock solution in E3 medium. Stock solutions were stored at −80° C. for long-term storage, and in-use aliquots were stored at −20° C. The desired concentration of Ketanserin was achieved by adding the stock solution to the E3 medium in which the fish swim.
(§1) For Independent Component Analysis (ICA) (FIGS. 2D, 3G, 4D, 4K and 4L), The inventors identified ICA weights and normalization factors in the dataset of 14,694 swimming episodes from N=22 fish for the small arena and N=20 fish for the large arena (FIG. 1) by using FastICA function in scikit-learn package (https://scikit-learn.org). The inventors subsequently applied the same ICA weights and normalization factors to other datasets. […]

larval zebrafish [2] = assay: Wide-field behavioral tracking of spontaneous exploration and visually driven swimming after drug bath pretreatment; conditions: for effects of pretreatment on swim patterns: fluoxetine 1 μM to 10 μM, fluvoxamine 2.5 μM to 25 μM, 24 hours incubation; for swim patterns and tail motions during visually driven behaviors: fluoxetine- and fluvoxamine-treated fish vs control, FIG. 3K; for spontaneous swimming distance: unstressed fish, ketamine 30 μM bath 30 minutes, fluoxetine 4.6 μM bath 24 hours
Text: Reference is now made to FIG. 1A, which is a schematic diagram depicting an experimental setup, which may be used for evaluating behavior of an animal, according to some embodiments. […] This setup tracks the precise body kinematics of a single fish in an environment that is large (e.g., 90 mm) compared to the length of larval zebrafish (˜4 mm) at a high-resolution (e.g., higher than 1100×1100 pixels) and high-speed (e.g., 290 Hz). Data analysis pipelines further processed the images to identify the fish loci and body postures by using a deep neural network.
Different swim episodes can be visually separated in the depicted trajectories. Fish behavior was recorded at infrared wavelengths for 15 minutes while visual gratings stopped for 10 seconds (spontaneous swimming) and moved for 10 seconds (visually driven behavior) in cycles.
The inventors have used a custom-built zebrafish tracking system consisting of a high-speed camera, a macro lens and associated locking sleeve, an infrared filter for the lens, 880 nm LED illumination, a 100 mm×120 mm cold mirror, and a compact projector.
The inventors have tested the behavior of AB fish at the age of 5 Days Post Fertilization (DPF) on a chemical watch glass (125 mm) whose bottom surface was manually coated with a white spray. The inventors have imaged an area that spanned 90 mm (corresponding to 1100-1200 pixels) for each dimension with a resolution of […] per pixel at 290 Hz. […] Behavioral data presented in this study were acquired using at least three batches, as depicted in FIGS. 1, 2, 3, 4, 1SD, 2H, 2I, 2J, 3L, 4S, for at least two batches (FIG. 3J).
Until 5 DPF, both control and drug-exposed embryos were reared in 90-mm Petri dishes and maintained in a light-cycled incubator at 28.0° C. Media was changed every other day and no food was given before behavioral experiments. All behavioral experiments in this study were performed in E3 medium after washing out pretreated drugs.
Psilocybin solution (Sigma, P-097) was purchased as a stock solution concentration of 1.0 mg/mL in acetonitrile:water (1:1), ampule of 1 mL (3.52 mM). Stock solutions were stored at −80° C. for long-term storage, and in-use aliquots were stored at −20° C. Aliquots were thawed and vortexed immediately before use. Psilocybin was administered by incubating the fish in the psilocybin solution in 6-well plates. Desired concentrations of psilocybin were achieved by adding the stock solution to the E3 medium in which the fish swim. Concentrations ranging from 1 μM to 50 μM were tested in order to optimize the dosage.
The inventors determined that a dose of 2.5 μM for 4 h had the largest effect on spontaneous swimming compared to controls (refer to FIGS. 3E and 3J). Following the 4-hour exposure, fish were double washed in E3 medium, and remained in E3 medium until their behavior was examined. Behaviors were recorded for 15 minutes per fish.
Fluoxetine hydrochloride (Sigma, F918) was prepared as a 1 mg/ml (2.9 mM) stock solution in a conditioned E3 medium for zebrafish embryos. Fluvoxamine (Sigma, F2802) was prepared as a 10 mg/ml (23 mM) stock solution in a conditioned E3 medium. Desired Fluoxetine and Fluvoxamine concentrations were achieved by diluting the stock solution with conditioned E3 medium and storing the aliquots at −20° C. At 5 DPF, the fish were incubated as follows: Fluoxetine and Fluvoxamine were administered by incubating the fish in the solutions in 6-well plates. Desired concentrations of the two types of SSRIs were achieved by adding the stock solutions to the E3 medium in which the fish swim. Concentrations ranging from 1 μM to 10 μM for Fluoxetine and 2.5 μM to 25 μM for Fluvoxamine were tested in order to optimize the dosage. After 24 hours of incubation the fish, after being triple washed, were transferred to a new Petri dish, similar to the one they dwelled in before, containing only E3 medium. Behaviors were recorded at 6 DPF for 15 minutes per fish. […]

larval zebrafish [3] = assay: Acute cold stress exposure (28° C. to 18° C., 5 minutes) after drug pretreatment, swim pattern analysis; conditions: for stress-induced increase in swimming distance: cold shock, fluoxetine 4.6 μM 24 hours before; for stress-induced shift along the ICA2 (IC2) axis, turning/escape behavior: psilocybin 2.5 μM, ketamine 30 μM, fluoxetine 4.6 μM
Text: As known in the art, acute administration of psilocybin has anxiolytic effects in humans. The inventors have thus tested whether acute stress exposure causes changes in fish's swim patterns in our setup and whether psilocybin can prevent such stress-induced behavioral changes. Various environmental stressors have been tested in larval zebrafish that trigger cortisol increase, including hypertonic water, acids, mechanical disturbance, social isolation, and heating or cooling shock.
As shown in FIG. 4I-E, the inventors also tested the effect of hypertonic stress for comparison.
The behavioral effects of other antidepressants was investigated and compared with those of psilocybin. Initially, the effect of ketamine was tested. Ketamine is a fast-acting antidepressant that can also suppress stress-induced behavioral changes in zebrafish. Sub-anesthetic concentration (30 μM) were used and bath application were performed for 30 minutes before the cold shock (FIG. 5A).
The effect of fluoxetine was also tested in the cold shock paradigm, using a concentration of 4.6 μM from previous zebrafish studies, and the effect of bath application was examined for 24 hours before the cold shock (FIG. 5D). […] However, fluoxetine had mixed effects on body kinematics after stress exposure. […] These mixed effects may be due to the induction of distorted swim patterns by fluoxetine that were observed (FIG. 5F, FIG. S3C) but also may reflect its lack of acute anxiolytic effects in humans.
The inventors classified the effects of psilocybin, ketamine and fluoxetine based on two behavioral measures: changes in swimming distances (FIG. 5G) and the ICA analysis of body kinematics (FIG. 5H). In the first type of classification (FIG. 5G), the action of tested drugs was classified based solely on swimming distances. […] Anxiolytic effects were calculated based on how much the drugs could revert the increase of swimming distance induced by stress exposure. In the second type of classification (FIG. 5H), two dimensions identified by the ICA analysis of body kinematics were used. […] Anxiolytic effects were calculated based on how much the drugs could revert the changes along the IC2 axis induced by stress exposure.
Just as osmotic changes to the water cause stress to the fish, changes in water temperature are also known to induce stress. Zebrafish's optimal environment is approximately 28° C., and so it has been shown that a short exposure of 5 minutes to 18° C. leads to increased cortisol levels and anxiety-like behaviors in larval zebrafish. Thus, the inventors utilized this established stress paradigm and exposed the fish to 18° C. E3 medium for 5 minutes. The inventors subsequently returned the fish to 28° C. E3 for a 5-minute recovery before testing (FIG. 4A). 18° C. E3 was achieved by mixing 4° C. E3 with 28° C. E3. Over the course of the 5-minute cold stimulus, the water temperature on average ranged from 18° C. to 20° C. The recovery in 28° C. E3 was done in an incubator, thus the temperature remained stable. Note that these procedures involve multiple occasions of transferring fish and replacing liquid around the fish, which themselves cause stress response due to mechanical disturbances. The effect of such procedural stress was present as the shifts of behavioral states along the IC2 axis in the data presented in FIGS. 4 and S4 compared to other datasets.
as §1

[4] = cold stress, classification of psilocybin, ketamine and fluoxetine

SMILES	effects of pretreatment on swim patterns (larval zebrafish [2])	swim patterns and tail motions during visually driven behaviors (larval zebrafish [2])	spontaneous swimming distance (larval zebrafish [2])	stress-induced increase in swimming distance (larval zebrafish [3]; ketamine 30 μM 30 minutes)	reversal of the stress-induced increases in swim distances (FIG. 5G) (larval zebrafish [3]; [4])	stress-induced shift along the ICA2 (IC2) axis, turning/escape behavior (larval zebrafish [3]; cold stress)	also measured
O=C(c1ccc(F)cc1)C1CCN(CCn2c(=O)[nH]c3ccccc3c2=O)CC1 [Ketanserin]	–	–	–	–	–	–	shift of behavioral states by bath application (larval zebrafish [1]): shifted behavioral states similarly to both cold and hypertonic stressors
CNCCC(Oc1ccc(C(F)(F)F)cc1)c1ccccc1 (centres unmarked) [fluoxetine, Fluoxetine hydrochloride]	suppressive effects	noticeable distortions in the swim patterns and low-frequency tail motions	did not increase	reversed	only occurred with ketamine and fluoxetine	partially reversed and partially exacerbated	stimulatory/suppressive effects on basal behavior (larval zebrafish [2]; unstressed fish vs control, swimming distance and IC1 axis classifications consistent (FIG. 5G, 5H)): suppressive
COCCCC/C(=N\OCCN)c1ccc(C(F)(F)F)cc1 [fluvoxamine, Fluvoxamine]	suppressive effects	decrease amplitude of tail motions	–	–	–	–	–
CNC1(c2ccccc2Cl)CCCCC1=O (centres unmarked) [ketamine]	–	–	did not increase	reversed	only occurred with ketamine and fluoxetine	significantly reversed	reversal of the stress-induced changes in body kinematics (FIG. 5H) (larval zebrafish [3]; cold stress, IC2 axis, classification of psilocybin, ketamine and fluoxetine): only occurred with ketamine and psilocybin; stress-induced changes in swim patterns (zig-zag vs straight) during visually driven swimming (larval zebrafish [3]; cold stress, psilocybin 2.5 μM pretreatment, ketamine 30 μM 30 minutes): prevented the emergence of zig-zag swim patterns after cold shock and recovered straight swim patterns
CN(C)CCc1c[nH]c2cccc(OP(=O)(O)O)c12 [psilocybin, Psilocybin]	–	–	–	–	–	–	most effective concentration for enhancing spontaneous exploration (larval zebrafish [2]; tested 1 μM to 50 μM, 30 minutes to 24 hours, optimal duration 4 h): 2.5 µM
